Source: ChEMBL document CHEMBL3769305, “Glucose-functionalized amino-OPEs as biocompatible photosensitizers in PDT” (Eur J Med Chem, 2016)

Experiment: Induction of singlet-oxygen generation at 5 x 10^-5 M irradiated at 380 nm by uric acid degradation assay
Assay type: physicochemical
Conditions: 0.38 µM; call rule not given here

Activity: Not Active
SMILES: COc1cc(C#Cc2cc(OC)c(C#Cc3cc(OC)c(C#CCO[C@@H]4O[C@H](CO)[C@@H](O)[C@H](O)[C@H]4O)cc3OC)cc2OC)c(OC)cc1C#CCO[C@@H]1O[C@H](CO)[C@@H](O)[C@H](O)[C@H]1O
